Measurements from patent US20040023951A1, “Combination therapy for treatment of psychoses” (priority 2002, published 2004).
“And” between values parts separate entries of the source, which are not always exact repeats. Identical values can stand only once.

Test system: Rats
Experiment: Conditioned avoidance behavior in rats
Assay type: in vivo, rat
Text: Conditioned Avoidance Behavior in Rats:
In a conditioned avoidance test, animals learn to respond during a conditioned stimulus in order to avoid mild shock presentation. A response during the conditioned stimulus is termed an avoidance response, a response during shock is termed an escape response; a response failure is when the animal fails to respond during either the conditioned stimulus or the shock presentation and is indicative of motor impairment. […] Antipsychotic drugs decrease the percentage of avoidance responses without interfering with the ability of the animal to respond since the animals do emit escape responses. The percentage of response failures is considered a measure of motor impairment.
Rats were required to press a response lever in an experimental chamber in order to avoid or escape foot-shock. Each experimental session consisted of 50 trials. During each trial, the chamber was illuminated and a tone presented for a maximum of 10 sec. A response during the tone immediately terminated the tone and the houselight, ending the trial. In the absence of a response during the tone alone, tone+foot-shock (2.0 mA) was presented for a maximum of 10 sec. A response during shock presentation immediately terminated the shock, the tone and the houselights ending the trial.
If the effects are simply additive the results will be additive. If the effects of are synergistic, then the dose of second component required to produce full efficacy will be decreased.

[1] = first component dose 0.001 in combination with Xanomeline dose 10
[2] = first component dose 0.003 in combination with Xanomeline dose 10
[3] = first component dose 0.01 in combination with Xanomeline dose 10
[4] = first component dose 0.03 in combination with Xanomeline dose 10
[5] = given alone, dose 0.03 (dose unit not given)
[6] = first component dose 0.16 in combination with Xanomeline dose 10
[7] = first component dose 0.32 in combination with Xanomeline dose 10
[8] = first component dose 0.625 in combination with Xanomeline dose 10
[9] = first component dose 1.25 in combination with Xanomeline dose 10
[10] = first component dose 2.5 in combination with Xanomeline dose 10
[11] = first component dose 0.1 in combination with Xanomeline dose 10
[12] = first component dose 0.3 in combination with Xanomeline dose 10
[13] = Xanomeline dose 10 with first component dose 0 (combination series)

Row | SMILES | % Avoidance Responses ± SEM [1] | % Avoidance Responses ± SEM [2] | % Avoidance Responses ± SEM [3] | % Response Failures ± SEM [3] | % Avoidance Responses ± SEM [4] | % Response Failures ± SEM [4] | % Avoidance Responses ± SEM [5] | % Avoidance Responses ± SEM (given alone, dose 0.1) | % Response Failures ± SEM (given alone, dose 0.1) | % Avoidance Responses ± SEM (given alone, dose 0.3) | % Response Failures ± SEM (given alone, dose 0.3) | % Avoidance Responses ± SEM (given alone, dose 10) | % Response Failures ± SEM (given alone, dose 10) | % Avoidance Responses ± SEM [11] | % Avoidance Responses ± SEM [12] | % Avoidance Responses ± SEM (given alone, dose 1) | % Response Failures ± SEM (given alone, dose 1) | % Avoidance Responses ± SEM (given alone, dose 3) | other results
1 | O=C(CCCN1CCC(O)(c2ccc(Cl)cc2)CC1)c1ccc(F)cc1 [Haloperidol] | 70 ± 12% | 45 ± 13% | 57 ± 6% | 1 ± 0% | 27 ± 8% | 8 ± 6% | 98.0 ± 1.0% | 59.0 ± 13.0% | 2 ± 1% | 10.0 ± 2.0% | 25 ± 12% | – | – | – | – | – | – | – | % Response Failures ± SEM [1]: 5 ± 3%; % Response Failures ± SEM [2]: 14 ± 11%; % Response Failures ± SEM (given alone, dose 0.03 (dose unit not given), measure of motor impairment): 1 ± 0%
2 | CN(C)CCCN1c2ccccc2Sc2ccc(Cl)cc21 [Chlorpromazine] | – | – | – | – | – | – | – | – | – | – | – | 10 ± 4% | 16 ± 8% | – | – | – | – | – | % Avoidance Responses ± SEM [6]: 56 ± 11%; % Response Failures ± SEM [6]: 1 ± 1%; % Avoidance Responses ± SEM [7]: 46 ± 22%; % Response Failures ± SEM [7]: 19 ± 19%; % Avoidance Responses ± SEM [8]: 30 ± 17%; % Response Failures ± SEM [8]: 0 ± 0%; % Avoidance Responses ± SEM [9]: 20 ± 10%; % Response Failures ± SEM [9]: 8 ± 7%; % Avoidance Responses ± SEM [10]: 22 ± 7%; % Response Failures ± SEM [10]: 1 ± 0%; % Avoidance Responses ± SEM (given alone, dose 1.25): 99 ± 1%; % Response Failures ± SEM (given alone, dose 1.25): 0 ± 0%; % Avoidance Responses ± SEM (given alone, dose 2.5): 96 ± 4%; % Response Failures ± SEM (given alone, dose 2.5): 0 ± 0%; % Avoidance Responses ± SEM (given alone, dose 5): 27 ± 12%; % Response Failures ± SEM (given alone, dose 5): 7 ± 5%
3 | OCCN1CCN(CCCN2c3ccccc3Sc3ccc(C(F)(F)F)cc32)CC1 [Fluphenazine] | – | – | 77 ± 12% | 1 ± 0% | 52 ± 12% | 3 ± 2% | – | 100 ± 0% | 0 ± 0% | 67 ± 9% | 2 ± 1% | – | – | 66 ± 11% | 33 ± 16% | 33 ± 6% | 28 ± 9% | – | % Response Failures ± SEM [11]: 0 ± 0%; % Response Failures ± SEM [12]: 6 ± 6%
4 | CCCCCCOc1nsnc1C1=CCCN(C)C1 [Xanomeline, 3-(4-hexyloxy-1,2,5-thiadiazol-3-yl)-1,2,5,6-tetrahydro-1-methylpyridine] | – | – | – | – | – | – | – | – | – | – | – | 44 ± 18% and 78 ± 12% and 63 ± 18% | 2 ± 1% and 1 ± 0% | – | – | 98 ± 2% and 99 ± 0% | 0 ± 0% | 93 ± 3% and 99 ± 1% | % Avoidance Responses ± SEM [13]: 87 ± 9% and 56 ± 13% and 72 ± 13%; % Response Failures ± SEM [13]: 0 ± 0%; % Response Failures ± SEM (given alone, dose 3): 0 ± 0%; % Avoidance Responses ± SEM (given alone, dose 17.5): 11 ± 4%; % Response Failures ± SEM (given alone, dose 17.5): 2 ± 1%
5 | Cc1nc2n(c(=O)c1CCN1CCC(c3noc4cc(F)ccc34)CC1)CCCC2 [Risperidone, 3-[2-[4-(6-fluoro-1,2-benzisoxazol-3-yl)piperidino]ethyl]-2-methyl-6,7,8,9-tetrahydro-4H-pyrido[1,2-a]pyrimidin-4-one] | 48 ± 8% | 48 ± 16% | 23 ± 14% | – | 8 ± 2% | – | 100 ± 0% | 91 ± 5% | – | 37 ± 11% | – | – | – | – | – | 2 ± 1% | – | – | –
6 | Cc1cc2c(s1)Nc1ccccc1N=C2N1CCN(C)CC1 [Olanzapine, 2-methyl-4-(4-methyl-1-piperazinyl)-10H-thieno[2,3-b][1,5]benzodiazepine] | – | – | 66 ± 11% | – | 47 ± 12% | – | – | – | – | – | – | 2 ± 1% | – | 56 ± 6% | 53 ± 14% | 98 ± 1% | – | 59 ± 16% | % Avoidance Responses ± SEM (first component dose 1.0 in combination with Xanomeline dose 10): 9 ± 6%
